Measured values published in the NIST ThermoML archive (doi:10.1016/j.jct.2009.04.006).
Numbers after ± are expanded uncertainties.

How the values were obtained:
[1] = Liquid; for mass density: 101.33 kPa, Pycnometric method; for vapor or sublimation pressure: Isoteniscope
[2] = refractive index (Na D-line) (dimensionless); conditions: 298.15 K; 101.33 kPa; Liquid; Standard Abbe refractometry

CC(Cl)(Cl)Cl [1,1,1-trichloroethane]
mass density ([1]; 298.15 K): 1328.7 ± 0.6 kg/m3 | vapor or sublimation pressure ([1]; 298.15 K): 16.64 ± 0.19 kPa | vapor or sublimation pressure ([1]; 308.15 K): 25.85 ± 0.22 kPa | vapor or sublimation pressure ([1]; 318.15 K): 37.61 ± 0.25 kPa | refractive index [2]: 1.4354 ± 0.0004

CCCCCl [1-chlorobutane]
mass density ([1]; 298.15 K): 880.9 ± 0.4 kg/m3 | vapor or sublimation pressure ([1]; 298.15 K): 13.72 ± 0.15 kPa | vapor or sublimation pressure ([1]; 308.15 K): 20.66 ± 0.19 kPa | vapor or sublimation pressure ([1]; 318.15 K): 31.46 ± 0.23 kPa | refractive index [2]: 1.3991 ± 0.0004

O=C1CCCCC1 [cyclohexanone]
mass density ([1]; 298.15 K): 943 ± 0.4 kg/m3 | vapor or sublimation pressure ([1]; 298.15 K): 0.64 ± 0.05 kPa | vapor or sublimation pressure ([1]; 308.15 K): 1.16 ± 0.06 kPa | vapor or sublimation pressure ([1]; 318.15 K): 1.92 ± 0.06 kPa | refractive index [2]: 1.4482 ± 0.0004
